The record followed here is ChEMBL document CHEMBL1137239, “Accurate prediction of the relative potencies of members of a series of kinase inhibitors using molecular docking and MM-GBSA scoring” (J Med Chem, 2006).

The target of the assay is T1, Aurora kinase A (Homo sapiens, UniProt O14965).
T1 sequence (O14965 whole entry): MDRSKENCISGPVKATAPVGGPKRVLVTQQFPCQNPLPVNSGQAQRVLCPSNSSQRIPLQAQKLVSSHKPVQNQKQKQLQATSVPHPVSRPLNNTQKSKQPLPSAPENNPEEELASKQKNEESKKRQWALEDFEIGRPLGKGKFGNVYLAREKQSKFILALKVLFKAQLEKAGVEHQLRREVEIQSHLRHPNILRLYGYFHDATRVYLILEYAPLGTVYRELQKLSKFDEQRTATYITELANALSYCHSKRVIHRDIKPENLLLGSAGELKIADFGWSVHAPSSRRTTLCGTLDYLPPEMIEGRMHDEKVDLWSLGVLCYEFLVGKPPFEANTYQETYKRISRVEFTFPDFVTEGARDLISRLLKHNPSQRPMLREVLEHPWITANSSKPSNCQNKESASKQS
In words: Inhibition of Aurora A.

In the case of `CCCN(CCC)S(=O)(=O)c1ncc(C(=O)Nc2ncc(Nc3ncnc4cc(OCCCN5CCOCC5)c(OC)cc34)cn2)cn1`, the 50% inhibitory concentration (IC50) (in general, the concentration that gives 50% inhibition) is 3900 nM.

For `COc1cc2c(Nc3cnc(NC(=O)c4ccccc4)nc3)ncnc2cc1OC[C@@H](O)CN1CCCCC1`, the concentration for half-maximal inhibition (IC50) was determined as 0.8 nM.

In turn, `COc1cc2c(Nc3cnc(NC(=O)c4ccc(Cc5ccccc5)c(Br)c4)nc3)ncnc2cc1OCCCN1CCOCC1` had a half-inhibitory concentration (IC50) of 70 nM. This IC50 is about 88-fold higher than that of the compound before.
